Where a name gives a salt, the structure may show the parent alone.
Key:
[1] = molecular target: human 5-HT6 receptor (Homo sapiens, UniProt P50406); assay: Radioligand binding assay, [3H]-LSD, HEK293 cell membranes
[2] = molecular target: T1, human 5-HT1A receptor (Homo sapiens, UniProt P08908); assay: Radioligand binding assay, [3H]-8-OH-DPAT, HEK293 cell membranes
T1 sequence (P08908 1-422): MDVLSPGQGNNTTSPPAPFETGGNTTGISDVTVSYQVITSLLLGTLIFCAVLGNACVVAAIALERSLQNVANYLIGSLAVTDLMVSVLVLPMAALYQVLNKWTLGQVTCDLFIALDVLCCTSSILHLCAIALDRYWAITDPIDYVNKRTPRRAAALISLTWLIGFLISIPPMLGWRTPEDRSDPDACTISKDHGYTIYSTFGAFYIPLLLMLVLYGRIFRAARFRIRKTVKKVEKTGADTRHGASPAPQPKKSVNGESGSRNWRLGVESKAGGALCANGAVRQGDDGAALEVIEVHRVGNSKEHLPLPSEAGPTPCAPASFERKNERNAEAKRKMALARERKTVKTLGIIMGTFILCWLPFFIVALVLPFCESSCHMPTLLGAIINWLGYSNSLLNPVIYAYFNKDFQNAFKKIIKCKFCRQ

[3] = molecular target: human D2L receptor (Homo sapiens, UniProt P14416); assay: Radioligand binding assay, [3H]-raclopride, HEK293 cell membranes
[4] = molecular target: human 5-HT7b receptor (Homo sapiens, UniProt P34969); assay: Radioligand binding assay, [3H]-5-CT, HEK293 cell membranes
Chain of human 5-HT7b receptor (P34969 1-432 limits assumed): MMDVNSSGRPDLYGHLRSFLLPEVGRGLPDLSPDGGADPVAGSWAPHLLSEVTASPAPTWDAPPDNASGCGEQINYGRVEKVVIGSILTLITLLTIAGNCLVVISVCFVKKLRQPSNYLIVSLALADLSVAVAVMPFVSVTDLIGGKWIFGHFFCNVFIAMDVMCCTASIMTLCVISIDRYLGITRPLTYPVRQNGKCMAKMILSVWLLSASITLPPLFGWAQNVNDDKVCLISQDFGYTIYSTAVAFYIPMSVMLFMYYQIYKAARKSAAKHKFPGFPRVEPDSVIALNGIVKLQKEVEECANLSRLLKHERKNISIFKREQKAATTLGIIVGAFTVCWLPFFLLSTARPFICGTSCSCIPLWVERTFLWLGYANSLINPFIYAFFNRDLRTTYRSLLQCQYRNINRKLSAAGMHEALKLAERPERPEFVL

Chain of human D2L receptor (P14416 whole entry): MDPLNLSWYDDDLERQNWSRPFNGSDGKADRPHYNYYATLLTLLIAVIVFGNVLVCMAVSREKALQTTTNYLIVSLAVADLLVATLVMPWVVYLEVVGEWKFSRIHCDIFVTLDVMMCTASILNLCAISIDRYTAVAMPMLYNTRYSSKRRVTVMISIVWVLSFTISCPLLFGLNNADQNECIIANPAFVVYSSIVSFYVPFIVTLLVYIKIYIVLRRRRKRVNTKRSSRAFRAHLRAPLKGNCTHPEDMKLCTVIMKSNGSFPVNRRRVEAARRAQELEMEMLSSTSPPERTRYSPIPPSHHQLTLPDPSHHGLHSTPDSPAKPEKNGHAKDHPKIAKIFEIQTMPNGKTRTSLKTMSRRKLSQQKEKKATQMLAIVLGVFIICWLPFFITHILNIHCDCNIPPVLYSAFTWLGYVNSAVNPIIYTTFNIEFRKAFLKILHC
Chain of human 5-HT6 receptor (P50406 whole entry): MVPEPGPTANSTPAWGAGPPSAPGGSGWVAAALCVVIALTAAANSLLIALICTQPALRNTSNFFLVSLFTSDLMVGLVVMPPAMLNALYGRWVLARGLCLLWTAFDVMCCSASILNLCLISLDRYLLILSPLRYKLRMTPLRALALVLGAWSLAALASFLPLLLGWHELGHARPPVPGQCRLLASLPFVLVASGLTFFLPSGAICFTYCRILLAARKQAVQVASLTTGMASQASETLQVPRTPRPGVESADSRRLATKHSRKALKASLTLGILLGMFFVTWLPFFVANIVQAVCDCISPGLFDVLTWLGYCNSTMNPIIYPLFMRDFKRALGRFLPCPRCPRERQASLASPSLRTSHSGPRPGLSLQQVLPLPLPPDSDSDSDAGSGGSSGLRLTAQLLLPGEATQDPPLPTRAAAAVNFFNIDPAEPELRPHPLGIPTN

Row | Structure (SMILES) | melting point [°C] | Ki [1] [nM] | Ki [2] [nM] | Ki [3] [nM] | Ki [4] [nM]
1 | O=S(=O)(NCCCCN1CCN(c2ccccc2)CC1)c1cc2ccccc2cn1 (as salt: hydrochloride) [Compound 1, N-(4-(4-phenyl)piperazin-1-yl)butyl)isoquinoline-3-sulfonamide hydrochloride] | 198 to 199 |  |  |  | 
2 | Cl.O=S(=O)(NCCCCN1CCN(c2cccc(Cl)c2)CC1)c1cc2ccccc2cn1 [Compound 2, N-(4-(4-(3-chlorophenyl)piperazin-1-yl)butyl)isoquinoline-3-sulfonamide hydrochloride] | 246 to 247 | 436 | 38 | 47 | 49
3 | Cc1cccc(N2CCN(CCCCNS(=O)(=O)c3cc4ccccc4cn3)CC2)c1C.Cl [Compound 4, N-(4-(4-(2,3-dimethylphenyl)piperazin-1-yl)butyl)isoquinoline-3-sulfonamide hydrochloride] | 215 to 216 | 916 | 73 | 23 | 85

Source: publication PMC5945563 (Chemistry Central Journal, 2018)
